Reference: patent US20170015654A1, “PYRIDAZINE COMPOUND” (TAKEDA PHARMACEUTICAL COMPANY LIMITED, priority 2014, published 2017)

Tested on: human large intestine cancer cell line HCT116
Assay: Antitumor effect on human large intestine cancer cell line HCT116 cancer-bearing mice
Format: in vivo, mouse
Settings: 10 mg/kg, 2 doses per day, orally for 14 days; HCT116 cancer-bearing BALB/c nude mice; tumor growth vs control group
Description: The compound of the present invention was evaluated for its antitumor effect on human large intestine cancer cell line HCT116 cancer-bearing mice by the following method.
The human large intestine cancer cell line HCT116 (purchased from ATCC (American Type Culture Collection)) was transplanted to each 6-week-old BALB/c female nude mouse (BALB/cA Jcl nu/nu: CLEA Japan Inc.) by the subcutaneous injection of 1.0×10^6 cells. After the transplantation, successfully engrafted tumor was observed, and the tumor size was measured 10 to 14 days after the transplantation. The tumor volume was calculated according to the following expression:
Tumor volume=Major axis×Minor axis×Minor axis×(½)
Individuals in which the volume of the engrafted tumor reached approximately 150 mm^3 were selected and used in the experiment as groups each involving 5 to 8 individuals. Each test compound was suspended in a 0.5% methylcellulose solution and orally administered to each individual for 14 days using the dose and the number of doses shown in the table below. Finally, in order to measure drug effects, the tumor volume was calculated from the tumor sizes at the day before the start of the administration and at the final day of the administration, and tumor growth in the test compound administration group compared with a control administration group given only a 0.5% methylcellulose solution was calculated as T/C according to the following expression:
T/C (%)=(Tumor volume after the completion of the administration of the test compound administration group−Tumor volume at the day before the start of the administration of the test compound administration group)/(Tumor volume after the completion of the administration of the control administration group−Tumor volume at the day before the start of the administration of the control administration group)×100

SMILES	T/C (%)
N#CC1(c2ccc(S(F)(F)(F)(F)F)cc2)CCN(c2ccc(-c3nnc(CO)o3)nn2)CC1 [Example 58, 1-(6-(5-(Hydroxymethyl)-1,3,4-oxadiazol-2-yl)pyridazin-3-yl)-4-(4-(pentafluorosulfanyl)phenyl)piperidine-4-carbonitrile]	86.2
OCc1nnc(-c2ccc(N3CCC(c4ccc(C(F)(F)F)cc4)(C(F)(F)F)CC3)nn2)o1 [Example 84, (5-(6-(4-(Trifluoromethyl)-4-(4-(trifluoromethyl)phenyl)piperidin-1-yl)pyridazin-3-yl)-1,3,4-oxadiazol-2-yl)methanol]	58.4
COC1(c2ccc(S(F)(F)(F)(F)F)cc2)CCN(c2ccc(-c3nnc(CO)o3)nn2)CC1 [Example 93, (5-(6-(4-Methoxy-4-(4-(pentafluorosulfanyl)phenyl)piperidin-1-yl)pyridazin-3-yl)-1,3,4-oxadiazol-2-yl)methanol]	58.1
COC1(c2ccc(S(F)(F)(F)(F)F)cc2)CCN(c2ccc(-c3nc(CO)ns3)nn2)CC1 [Example 110, (5-(6-(4-Methoxy-4-(4-(pentafluorosulfanyl)phenyl)piperidin-1-yl)pyridazin-3-yl)-1,2,4-thiadiazol-3-yl)methanol]	64.8
OCc1nsc(-c2ccc(N3CCC(c4ccc(C(F)(F)F)cc4)(C(F)(F)F)CC3)nn2)n1 [Example 112, (5-(6-(4-(Trifluoromethyl)-4-(4-(trifluoromethyl)phenyl)piperidin-1-yl)pyridazin-3-yl)-1,2,4-thiadiazol-3-yl)methanol]	53.7
OCc1nnc(-c2ccc(N3CCC(c4ccc(C(F)(F)F)cc4)(C(F)(F)F)CC3)nn2)s1 [Example 113, (5-(6-(4-(Trifluoromethyl)-4-(4-(trifluoromethyl)phenyl)piperidin-1-yl)pyridazin-3-yl)-1,3,4-thiadiazol-2-yl)methanol]	67.8
